Experimental data from patent US20240309014A1, “MACROCYCLIC COMPOUNDS AND USES THEREOF” (President and Fellows of Harvard College, priority 2017, published 2024).

Key:
[1] = system: BJ normal human fibroblasts stimulated with TGF-β; assay: TGF-β-treated BJ cells, in vitro CAF-inducing system; format: cell-based
Procedure: FIG. 19A. BJ cells (normal human […] fibroblasts) were co-cultured with FaDu cells for three days in the absence (vehicle) or presence of A83-01, a potent selective TGF-β-R inhibitor, and the expression of α-SMA was analysed by immunofluorescence staining (red color). Samples were also stained with anti-pan-human cytokeratin (green color) for cancer cell staining and DAPI (blue color) for nuclear staining. FIGS. 19B-19E BJ cells were treated with Compound (1) (0.15 nmol/L in immunofluorescence staining data and indicated concentrations in western blot analysis data) and TGF-β for 2 days. FIGS. 19B-19E. Samples were stained with the indicated antibody (red color) and DAPI (blue color) for nuclear staining. FIG. 19E Western blot images and quantification of the images. […] FIGS. 19G and 19E BJ cells were pretreated with defactinib (1 μmol/L) and TGF-β for 2 days. The lens magnification used was x4 (FIGS. 19A, 19B, 19C, 19G, and 19H) or x40 (FIGS. 19D and 19E).
FIGS. 20A and 20B. Quantification of immunofluorescence images of BJ cells treated with TGF-β(1 ng/mL) and the indicated concentrations of Compound (1) for α-SMA (FIG. 20A), Phospho-S6-ribosomal protein (Ser235/236) (FIG. 20B). FIG. 20C. Immunofluorescence analysis of BJ cells treated with TGF-β in the absence or presence of dactolisib, a phosphatidylinositol 3 kinase inhibitor. FIG. 20D. Immunofluorescence analysis of phosphorylated Smad⅔ in BJ cells pretreated with Compound (1) (72 hours) after 30 minutes of stimulation with TGF-β. Acetylated-α-tubulin was co-stained to confirm the activity of Compound (1). FIG. 20E. Western blot analysis of Smad⅔ in BJ cells treated with TGF-β and the indicated concentrations of Compound (1). The lens magnification used was x4 (FIG. 20C) or x40 (FIG. 20D).
The expression of α-SMA was induced in BJ normal human fibroblasts upon co-cultivation with FaDu cells, and the expression was attenuated by treatment with A83-01, a potent selective inhibitor of the TGF-β-receptor (FIG. 19A).
Under the same experimental conditions, the enhanced formation of focal adhesions, which were detected as punctate structures with an antibody against phosphorylated FAK at tyrosine-397, after stimulation with TGF-β was decreased in BJ cells by treatment with Compound (1) (FIG. 19E). Many signalling complexes are assembled in focal adhesion sites, and those complexes dispatch several downstream signals, including those involved in the PI3K/AKT/mTOR pathway. See, e.g., Sulzmaier et. al. “FAK in cancer: mechanistic findings and clinical applications”, Nature Reviews Cancer 2014, 14, 598-610.

[2] = system: murine undifferentiated colon carcinoma cell line CT26; assay: CT26 subcutaneous syngeneic model in combination with anti-mPD-1 antibody; format: in vivo, BALB/c mice
Procedure: A murine undifferentiated colon carcinoma cell line CT26, which had been cultured in an RPMI-1640 medium containing 10% FBS, and penicillin and streptomycin, was adjusted to a concentration of 2×10^7 cells/mL with Hank's Balanced Salt Solution to prepare a cell suspension. On day 1, the cell suspension was inoculated in a volume of 100 μL into a subcutaneous part of a right flank of BALB/c mice, 6 weeks of ages (BALB/cAnNCrlCrlj, female, Charles River Laboratories Japan, Inc.). Two days after the cell inoculation, the mice were randomly divided into four groups and each group consists of 8 mice. The shortest diameter and the longest diameter of a tumor in each mouse were measured by using an electronic digital caliper (Digimatic™ caliper, Mitutoyo Corporation), so as to calculate the volume of the tumor in accordance with the following calculation formula: […]
The test compound was intravenously administered at 0.09 mg/kg on days 3 and 11. Anti-mPD-1 antibody (BE0146, Bio X Cell) was intravenously administered at 10 mg/kg on days 3, 7, 11, and 15.

[3] = system: KPL-4 subcutaneous xenograft; assay: KPL-4 subcutaneous xenograft model in combination with trastuzumab; format: in vivo, nude mice
Procedure: A human HER-2 positive breast cancer cell line KPL-4, which had been cultured in an RPMI-1640 medium containing 10% FBS, and penicillin and streptomycin, was adjusted to a concentration of 1×10^8 cells/mL with Hank's Balanced Salt Solution to prepare a cell suspension. The cell suspension was inoculated in a volume of 100 μL into a subcutaneous part of a right flank of nude mice, 7 weeks of ages (CAnN.Cg-Foxnlnu/CrlCrlj, female, Charles River Laboratories Japan, Inc.). Sixteen days after the cell inoculation, the shortest diameter and the longest diameter of a tumor in each mouse were measured by using an electronic digital caliper (Digimatic™ caliper, Mitutoyo Corporation), so as to calculate the volume of the tumor in accordance with the following calculation formulae: […]
On the basis of the volumes of tumors obtained on the first day of administration, the mice were grouped such that averages of the tumor volumes were substantially equal among the groups. The experiment was conducted on groups each consisting of 6 mice. Each test compound was dissolved in DMSO and a solution was stored at the freezer before use. Immediately before the administration, the stock solution was diluted in saline.

[4] = system: OSC-19 subcutaneous xenograft; assay: Antitumor activity against OSC-19 subcutaneous xenograft as monotherapy; format: in vivo, nude mice; conditions: Q7Dx2
Procedure: A human squamous cell carcinoma of the head and neck (SCCHN) cell line OSC-19, which had been cultured in an DMEM/Ham's F-12 (1:1) medium containing 10% FBS, and penicillin and streptomycin, was adjusted to a concentration of 1×10^8 cells/ml with PBS to prepare a cell suspension, and the suspension was mixed with Matrigel™ (BD Bioscience, #366237) in a ratio of 1:1 to prepare a cell suspension in a concentration of 5×10^7 cell/mL. The cell suspension was inoculated in a volume of 100 μL into a subcutaneous part of a right flank of nude mice, 5 weeks of ages (CAnN.Cg-Foxnlnu/CrlCrlj, female, Charles River Laboratories Japan, Inc.). Six days after cell inoculation, the shortest diameter and the longest diameter of a tumor in each mouse were measured by using an electronic digital caliper (Digimatic™ caliper, Mitutoyo Corporation), so as to calculate the volume of the tumor in accordance with the following calculation formulae: […]
On the basis of the volumes of tumors obtained on the first day of administration, the mice were grouped such that averages of the tumor volumes were substantially equal among the groups. The experiment was conducted on groups each consisting of 6 mice. Test compound was dissolved in saline and intravenously administered at doses from 0.06 mg/kg to 0.18 mg/kg once a week for 2 weeks (Q7Dx2 schedule).

[5] = system: L-1210 Leukemia; conditions: cited from earlier work

Compound	TGF-β-induced phosphorylation and nuclear localization of Smad⅔ ([1]; BJ cells)	enhanced formation of focal adhesions (phosphorylated FAK at tyrosine-397) ([1]; BJ cells after stimulation with TGF-β)	activation of the PI3K/AKT/mTOR pathway ([1]; BJ cells treated with TGF-β)	TGF-β-enhanced P3-tubulin expression and microtubule network formation ([1]; BJ cells, co-treatment with TGF-β)	α-SMA induction by TGF-β ([1]; BJ cells, immunofluorescence, 2 days)	Inhibition of tumor growth on day 15 (%) ([2]; 0.09 mg/kg i.v. days 3 and 11 + anti-mPD-1 antibody 10 mg/kg)	Inhibition of tumor growth on day 15 (%) ([2]; single agent: anti-mPD-1 antibody 10 mg/kg or Compound (1) 0.09 mg/kg)	Tumor Regression (%) ([3]; 0.09 mg/kg i.v. + trastuzumab 10 mg/kg)	Tumor Regression (%) ([3]; 0.09 mg/kg i.v., without trastuzumab)	Tumor Regression (%) ([3]; 0.18 mg/kg i.v. + trastuzumab 10 mg/kg)	Tumor Regression (%) ([3]; 0.18 mg/kg i.v., without trastuzumab)	Tumor Regression (%) ([4]; 0.06 mg/kg i.v.)	Tumor Regression (%) ([4]; 0.18 mg/kg i.v.)	activity against L-1210 Leukemia in vivo [5]
C=C1C[C@@H]2CC[C@@]34C[C@H]5O[C@H]6[C@@H](O3)[C@H]3O[C@H](CC[C@@H]3O[C@H]6C5O4)CC(=O)O[C@@H]3[C@@H](C)[C@@H]4O[C@@H]5C[C@]6(C[C@@H]7O[C@]8(C[C@H](C)[C@@H]9O[C@H](CN)[C@H](O)C[C@@H]9O8)C[C@H](C)[C@@H]7O6)O[C@@H]5C[C@@H]4O[C@H]3C[C@H]3O[C@@H](CC[C@@H]1O2)C[C@@H](C)C3=C (stereo in doubt) [Compound (1)]	did not significantly change	decreased	reduce the activation of the PI3K/AKT/mTOR pathway	diminished	interfered with α-SMA induction by TGF-β in BJ cells without growth inhibitory activity	62	30	83	43	100	87	59	90	
C=C1C[C@@H]2CC[C@@]34C[C@H]5O[C@H]6[C@@H](O3)[C@H]3O[C@H](CC[C@@H]3O[C@H]6[C@H]5O4)CC(=O)O[C@@H]3[C@@H](C)[C@@H]4O[C@@H]5C[C@]6(C[C@@H]7O[C@]8(C[C@H](C)[C@@H]9O[C@H]([C@@H](O)C[C@@H](O)CO)C[C@@H]9O8)C[C@H](C)[C@@H]7O6)O[C@@H]5C[C@@H]4O[C@H]3C[C@H]3O[C@@H](CC[C@@H]1O2)C[C@@H](C)C3=C [Halichondrin B, reference compound]														highly active
